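Exposure lasted 48 hours, with cells grown in 96-well plates and compounds tested at five concentrations. Here, GI50 denotes the concentration required for 50% inhibition of growth.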 Active and inactive are the calls of the source. Rule as the data show it: active = GI50 up to about 1.1 µM and inactive = higher.
Experiments:
Experiment in all cases: DTP human tumour cell line panel, 48 h
[1] = system: DMS-114
[2] = system: SNB-78
[3] = system: RXF 631
[4] = system: XF498
[5] = system: DLD-1
[6] = system: HOP-18
[7] = system: M19-MEL
[8] = system: LXFL 529
[9] = system: KM-20L2

SMILES | GI50 [1] | GI50 [2] | GI50 [3] | GI50 [4] | GI50 [5] | GI50 [6] | GI50 [7] | GI50 [8] | GI50 [9]
CNC(=O)OCc1nc(SSC(C)(C)C)n(C)c1COC(=O)NC | 1.72 µM (inactive) | 7.83 µM (inactive) | 1.73 µM (inactive) | 2.32 µM (inactive) | 1.43 µM (inactive) | 5.18 µM (inactive) | 3.32 µM (inactive) | 1.24 µM (inactive) | 12.8 µM (inactive)
COC(=O)c1cccc2cccc(C(=O)Nc3ccc(Cl)cc3)c12 | 14.8 µM (inactive) | 56.1 µM (inactive) | > 86.1 µM (inactive) | > 73.3 µM (inactive) | > 21.7 µM (inactive) | > 100 µM (inactive) | 4.35 µM (inactive) | 0.474 µM (active) | > 24.2 µM (inactive)
Cc1cccc(C(C)C)c1NC(=O)C(=O)CC(=O)c1c(C)[n+]([O-])c2ccccc2[n+]1[O-] | 16.5 µM (inactive) | 49 µM (inactive) | 18.1 µM (inactive) |  |  | 96.4 µM (inactive) | 19.8 µM (inactive) | 34 µM (inactive) | 37.6 µM (inactive)
O=C(CCC1CCCCN1)Nc1ccc2c(c1)C(=O)c1ccc(NC(=O)CCN3CCCCC3)cc1C2=O (stereo not given) | 1.59 µM (inactive) | 4.56 µM (inactive) |  |  | 1.61 µM (inactive) | 2.79 µM (inactive) | 2.04 µM (inactive) | 1.32 µM (inactive) | 3.21 µM (inactive)
Cc1cc(NS(=O)(=O)c2ccc(Nc3c4ccccc4nc4c(C(=O)Nc5ccc(S(N)(=O)=O)cc5)cccc34)cc2)no1 | 28.5 µM (inactive) | 23.9 µM (inactive) |  | 20.9 µM (inactive) | > 100 µM (inactive) | > 100 µM (inactive) | 25.1 µM (inactive) | 21.1 µM (inactive) | > 100 µM (inactive)
CC(C)(C)C1CCC2c3c([nH]c4ccccc34)C3C(=O)N(c4ccc(Br)cc4)C(=O)C3C2C1 (stereo not given) | 19 µM (inactive) | 26.4 µM (inactive) |  | 38.4 µM (inactive) | 41.4 µM (inactive) | 52.4 µM (inactive) | 16.8 µM (inactive) | 21.7 µM (inactive) | 15.1 µM (inactive)
CC(/C=C1\CCC(CN(C)C)C1=O)c1cccc(Br)c1 (stereo not given) | 19.7 µM (inactive) | 16.4 µM (inactive) | 7.91 µM (inactive) | 20.6 µM (inactive) | 9.57 µM (inactive) | 18.7 µM (inactive) | 20.7 µM (inactive) | 5.62 µM (inactive) | 21.4 µM (inactive)
CC(C)=CC(=O)Oc1ccc([N+](=O)[O-])cc1 | > 100 µM (inactive) | > 100 µM (inactive) |  | > 100 µM (inactive) | > 100 µM (inactive) | > 100 µM (inactive) | > 100 µM (inactive) | > 100 µM (inactive) | > 100 µM (inactive)
C#CCN(N=O)C(=O)NCCCCC(NC(=O)OCc1ccccc1)C(=O)OCc1ccccc1 (stereo not given) |  | 46.2 µM (inactive) |  | 29.9 µM (inactive) | 29 µM (inactive) | > 100 µM (inactive) | 23.3 µM (inactive) | 19.1 µM (inactive) | > 100 µM (inactive)
Cc1cc(NS(=O)(=O)c2ccc(NC(=O)c3cccc4c(N)c5ccccc5nc34)cc2)no1 | 22.2 µM (inactive) | 27.5 µM (inactive) | 18.4 µM (inactive) | 21.8 µM (inactive) | 30.6 µM (inactive) |  | 21.2 µM (inactive) | 32 µM (inactive) | 34.1 µM (inactive)
CC1OC(n2cc(Cl)c(=O)[nH]c2=O)C=C(OC(=O)c2ccccc2)C1=O (stereo not given) | > 100 µM (inactive) | > 100 µM (inactive) | > 100 µM (inactive) | > 100 µM (inactive) | > 100 µM (inactive) | > 100 µM (inactive) | > 100 µM (inactive) |  | > 100 µM (inactive)
O=C1CCCc2ccc([N+](=O)[O-])c(O)c21 | 66.1 µM (inactive) | > 100 µM (inactive) |  |  | > 100 µM (inactive) |  | > 100 µM (inactive) | > 100 µM (inactive) | > 100 µM (inactive)
Sc1nnc(/C=C/c2ccc(Cl)c(Cl)c2)[nH]1 | 0.0298 µM (active) |  |  | 30.9 µM (inactive) | > 100 µM (inactive) |  |  |  | > 100 µM (inactive)
N#C/C(=C/c1ccc([N+](=O)[O-])o1)c1ccccc1 | > 100 µM (inactive) | > 100 µM (inactive) |  |  | > 100 µM (inactive) | > 100 µM (inactive) | > 100 µM (inactive) | > 100 µM (inactive) | > 100 µM (inactive)
CCO/C=C1\N=C(C(Cl)c2ccccc2)OC1=O (stereo not given) | 61.5 µM (inactive) | > 100 µM (inactive) |  | > 100 µM (inactive) | > 100 µM (inactive) |  | > 100 µM (inactive) | > 100 µM (inactive) | > 100 µM (inactive)
C[N+](C)(C)CC1CCCC/C1=N\OC(=O)c1ccccc1 (stereo not given) | > 100 µM (inactive) | > 100 µM (inactive) | > 100 µM (inactive) |  | > 100 µM (inactive) | > 100 µM (inactive) | > 100 µM (inactive) | > 100 µM (inactive) | > 100 µM (inactive)
COc1nc(=O)cc(N)n1C1OC(CO)C(O)C1O (stereo not given) | > 100 µM (inactive) | > 100 µM (inactive) |  |  | > 100 µM (inactive) |  | > 100 µM (inactive) | > 100 µM (inactive) | > 100 µM (inactive)
C=C(c1ccccc1N)[C@@]1(O)C[C@H](/C(=C\C)CO)C[C@@H]1NCc1ccccc1 | 17 µM (inactive) | 25.2 µM (inactive) |  |  |  | 20.4 µM (inactive) | 23.6 µM (inactive) |  | 17.3 µM (inactive)
CC1(C)CC(=O)C/C(=N/c2ccc([N+](=O)[O-])cc2)C1 | 41.4 µM (inactive) | > 100 µM (inactive) | > 100 µM (inactive) | > 100 µM (inactive) | 21.1 µM (inactive) | > 100 µM (inactive) | 66.2 µM (inactive) | > 100 µM (inactive) | > 100 µM (inactive)
S=P(c1ccccc1)(c1ccccc1)C1(C2(P(=S)(c3ccccc3)c3ccccc3)CC2)CC1 | > 100 µM (inactive) | > 100 µM (inactive) | > 100 µM (inactive) | > 100 µM (inactive) | > 100 µM (inactive) |  | > 100 µM (inactive) | > 100 µM (inactive) | > 100 µM (inactive)
COC(=O)/C1=C/C2CC(/C=C(/c3ccccc3)C(=O)O1)C2 | 19 µM (inactive) |  |  | 22 µM (inactive) | 22.8 µM (inactive) | 27.5 µM (inactive) | 23.1 µM (inactive) |  | 
N#CC(c1ccc(Cl)cc1)c1cccc(C(C#N)c2ccc(Cl)cc2)n1 (stereo not given) |  | 20.7 µM (inactive) |  | 5.13 µM (inactive) | 37.2 µM (inactive) |  | 19.6 µM (inactive) | 7.78 µM (inactive) | 38.8 µM (inactive)
c1ccc2c(c1)c1ccccc1c1n[se]nc21 | > 100 µM (inactive) | > 100 µM (inactive) | 89.7 µM (inactive) | 31.5 µM (inactive) | > 100 µM (inactive) | < 0.01 µM (active) |  | 21.8 µM (inactive) | > 100 µM (inactive)
O=C(CSc1nc(-c2ccccc2)c(-c2ccccc2)[nH]1)N/N=C/c1ccc(O)cc1 | 22.1 µM (inactive) | 37.9 µM (inactive) |  | 28.5 µM (inactive) | 36.7 µM (inactive) | 12.2 µM (inactive) | 19.4 µM (inactive) | 30.5 µM (inactive) | 24.5 µM (inactive)
NNC(=O)/C(=C/c1ccc(Cl)c(Cl)c1)NC(=O)c1ccccc1 | 61.8 µM (inactive) | > 100 µM (inactive) | > 100 µM (inactive) | > 100 µM (inactive) | > 100 µM (inactive) |  | > 100 µM (inactive) | > 100 µM (inactive) | > 100 µM (inactive)
NC1=C2C(Br)=CN([C@@H]3O[C@H](CO)[C@@H](O)[C@@H]3O)C2C(=O)N=N1 (stereo not given in full) | 4.94 µM (inactive) | 30.9 µM (inactive) | 0.516 µM (active) |  | 0.76 µM (active) | 5.68 µM (inactive) | 15.5 µM (inactive) | 8.47 µM (inactive) | 22.2 µM (inactive)
CO[C@H]1C[C@](C)(O)Cc2cc3c(c(O)c21)C(=O)c1c(O)cc2c(c1C3=O)O[C@@H]1O[C@@]2(C)[C@H](O)[C@@H](N(C)C)[C@@H]1O | 0.456 µM (active) | 3.87 µM (inactive) | 0.902 µM (active) | 0.147 µM (active) | 2.81 µM (inactive) | 0.859 µM (active) | 1.11 µM (active) | 1.96 µM (inactive) | 2.89 µM (inactive)
